Measured values reported in patent US11167007B2, “FOXM1 modulators and uses thereof” (City of Hope, priority 2016, dated 2021).

Experiments:
[1] = target: T1, AR with a 24 glutamine tract (normal) (Homo sapiens, UniProt P10275, DUP80-80); experiment: Luciferase reporter assay in HEK293 cells transfected with ARQ24; type: cell-based; conditions: HEK293, AR 24 glutamines, FIG. 2C
T1 construct: expressed in transfected cells; host or cells: HEK293
Text: (§1) Luciferase Reporter Assay. Cells were transfected using Lipofectamine Plus (Invitrogen) with a normalization plasmid (pRL-SV40, Promega) and an androgen responsive plasmid (MMTV-luciferase or PSA-luciferase) as described in Jones et al, ACS Chem Biol, 3(7):412-8 (2008), and, where indicated, with an shRNA plasmid targeting FOXM1 (adapted for mouse FOXM1 sequence targeting) a scrambled control shRNA plasmid, or ARQ24 or ARQ65 plasmids. Christensen et al, PLoS One, 8(1):e54556 (2013). The following day, cells and drugs were distributed to 96-well plates. 24 hours later, luciferase activity was assessed by a dual luciferase assay kit (Promega) on the Tecan plate reader. Samples were run in quadruplicates and a Student's t test was performed to determine significance, where p<0.05 was considered significant.
SBMA is caused by the activity of polyglutamine-expanded AR, and experiments were conducted to investigate the effects of thiostrepton against polyglutamine-expanded AR. AR-negative HEK293 cells were transfected with plasmids encoding AR with a 24 glutamine tract (normal) or with a 65 glutamine tract (disease associated). The polyglutamine-expanded AR was less transcriptionally active than the normal AR, as has been previously documented for such constructs. Kazemi-Esfarjani et al, Hum Mol Genet, 4:523-527 (1995).

[2] = target: T2, AR with a 112 glutamine tract (Homo sapiens, UniProt P10275, INS80QQQQQQQQQQQQQQQQQQQQQQQQQQQQQQQQQQQQQQQQQQQQQQQQQQQQQQQQQQQQQQQQQQQQQQQQQQQQQQQQQQQQQQQQQ); experiment: Androgen-responsive luciferase reporter assay in PC12 (ARQ112) neuronal cells; type: cell-based; conditions: PC12 cells expressing AR with 112 glutamine tract, FIG. 2B
T2 construct: expressed in transfected cells; host or cells: PC12 (ARQ112), inducible
T2 sequence (P10275 with tags, fused parts or gaps with the stated changes): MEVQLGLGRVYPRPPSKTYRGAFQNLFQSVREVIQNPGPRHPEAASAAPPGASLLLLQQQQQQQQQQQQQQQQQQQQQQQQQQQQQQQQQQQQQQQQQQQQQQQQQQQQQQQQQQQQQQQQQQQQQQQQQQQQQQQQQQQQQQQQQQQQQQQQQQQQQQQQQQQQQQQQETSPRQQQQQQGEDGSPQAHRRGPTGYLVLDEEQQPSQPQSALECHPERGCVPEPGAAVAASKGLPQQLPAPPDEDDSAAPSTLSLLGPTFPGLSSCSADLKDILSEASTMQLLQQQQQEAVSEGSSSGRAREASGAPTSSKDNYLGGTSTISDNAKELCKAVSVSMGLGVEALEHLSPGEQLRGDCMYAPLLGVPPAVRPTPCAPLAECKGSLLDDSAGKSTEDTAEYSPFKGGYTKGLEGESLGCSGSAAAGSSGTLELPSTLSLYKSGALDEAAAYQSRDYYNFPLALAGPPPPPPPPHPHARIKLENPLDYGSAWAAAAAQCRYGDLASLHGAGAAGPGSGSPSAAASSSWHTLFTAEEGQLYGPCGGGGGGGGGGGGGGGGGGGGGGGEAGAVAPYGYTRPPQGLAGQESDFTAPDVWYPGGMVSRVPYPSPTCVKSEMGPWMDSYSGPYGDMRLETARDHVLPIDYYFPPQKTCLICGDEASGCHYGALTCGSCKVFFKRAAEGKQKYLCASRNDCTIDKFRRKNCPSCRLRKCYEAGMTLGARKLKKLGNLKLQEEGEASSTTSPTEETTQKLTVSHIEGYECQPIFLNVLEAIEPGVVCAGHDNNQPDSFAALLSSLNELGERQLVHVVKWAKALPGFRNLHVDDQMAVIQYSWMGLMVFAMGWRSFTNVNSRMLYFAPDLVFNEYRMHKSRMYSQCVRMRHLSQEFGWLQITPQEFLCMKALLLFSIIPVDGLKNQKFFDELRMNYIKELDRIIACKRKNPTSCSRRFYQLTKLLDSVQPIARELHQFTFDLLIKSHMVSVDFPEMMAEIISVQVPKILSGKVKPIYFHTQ
Text: as §1
The ability of thiostrepton to inhibit AR activity in additional neuronal cells, including ReNcell CX cells PC12 cells, and in rat L6 skeletal muscle cells was examined (FIG. 2B). Donato et al, BMC Neurosci, 8:36 (2007); Yaffe, Proc Natl Acad Sci USA, 61(2):477-83 (1968).
SBMA is caused by the activity of polyglutamine-expanded AR, and experiments were conducted to investigate the effects of thiostrepton against polyglutamine-expanded AR. […]

T1 sequence (P10275 with tags, fused parts or gaps DUP80-80): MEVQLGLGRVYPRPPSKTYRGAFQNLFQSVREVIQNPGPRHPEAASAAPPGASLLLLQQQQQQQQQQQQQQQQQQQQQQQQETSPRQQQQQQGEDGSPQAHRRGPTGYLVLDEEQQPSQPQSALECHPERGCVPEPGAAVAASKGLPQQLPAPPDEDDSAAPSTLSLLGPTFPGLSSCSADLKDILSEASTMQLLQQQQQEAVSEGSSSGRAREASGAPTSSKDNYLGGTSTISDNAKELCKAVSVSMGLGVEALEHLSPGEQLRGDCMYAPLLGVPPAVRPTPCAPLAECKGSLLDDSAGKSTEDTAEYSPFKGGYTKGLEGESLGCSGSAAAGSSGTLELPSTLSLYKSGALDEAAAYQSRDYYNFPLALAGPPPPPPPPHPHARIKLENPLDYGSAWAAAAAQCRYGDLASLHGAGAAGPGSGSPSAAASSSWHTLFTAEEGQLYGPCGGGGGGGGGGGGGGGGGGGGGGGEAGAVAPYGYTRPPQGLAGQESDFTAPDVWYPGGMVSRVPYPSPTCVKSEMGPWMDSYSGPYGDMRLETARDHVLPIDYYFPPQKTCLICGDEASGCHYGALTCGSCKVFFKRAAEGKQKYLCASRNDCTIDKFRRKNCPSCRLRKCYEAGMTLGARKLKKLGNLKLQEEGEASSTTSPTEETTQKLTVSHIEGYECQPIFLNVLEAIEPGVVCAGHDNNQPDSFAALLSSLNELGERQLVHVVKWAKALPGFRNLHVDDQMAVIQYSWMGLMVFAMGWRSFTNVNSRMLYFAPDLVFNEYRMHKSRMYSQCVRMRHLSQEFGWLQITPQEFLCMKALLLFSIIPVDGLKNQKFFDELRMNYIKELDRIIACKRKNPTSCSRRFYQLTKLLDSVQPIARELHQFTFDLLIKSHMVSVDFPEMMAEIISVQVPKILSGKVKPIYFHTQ

## C=C(NC(=O)C(=C)NC(=O)c1csc(C2=N[C@@H]3c4csc(n4)[C@H]4NC(=O)c5csc(n5)[C@H]([C@](C)(O)[C@@H](C)O)NC(=O)[C@H]5CSC(=N5)/C(=C/C)NC(=O)[C@H]([C@@H](C)O)NC(=O)c5csc(n5)[C@]3(CC2)NC(=O)[C@H](C)NC(=O)C(=C)NC(=O)[C@H](C)NC(=O)[C@H]([C@@H](C)CC)N[C@@H]2C=Cc3c([C@H](C)O)cc(nc3[C@H]2O)C(=O)O[C@@H]4C)n1)C(N)=O [thiostrepton]
[1]
  inhibition of non-expanded AR activity (luciferase): inhibited
[2]
  inhibition of AR activity (luciferase): efficiently inhibited AR activity
